From PubChem BioAssay AID248 (DTP/NCI, 2004)
“And” between values parts separate entries of the source, which are not always exact repeats. Identical values can stand only once. Inconclusive results and toxic doses are left out. Rule as the data show it: active = T/C of 150% or more; inactive = T/C below 125%.

Tested on: L1210 leukemia ip in BDF1 mice, survival T/C
Assay: NCI In Vivo Anticancer Drug Screen. Data for tumor model L1210 Leukemia (intraperitoneal) in B6D2F1 (BDF1) mice
Details: endpoint: mean survival time, higher = longer survival
Outline: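 Value reflects the ratio of survival in compound-treated mice to survival in vehicle-treated controls, with both groups carrying the same transplanted tumor.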

[1] = dose: 25.0 mg/kg/injection, schedule: Q01DX009 (ip), vehicle: Klucel (hydroxypropylcellulose) (HPC)
[2] = dose: 50.0 mg/kg/injection, schedule: Q01DX009 (ip), vehicle: Klucel (hydroxypropylcellulose) (HPC)
[3] = dose: 100.0 mg/kg/injection, schedule: Q01DX009 (ip), vehicle: Klucel (hydroxypropylcellulose) (HPC)
[4] = dose: 100.0 mg/kg/injection, schedule: Q04DX003 (ip), vehicle: Klucel (hydroxypropylcellulose) (HPC)
[5] = dose: 200.0 mg/kg/injection, schedule: Q01DX009 (ip), vehicle: Klucel (hydroxypropylcellulose) (HPC)
[6] = dose: 200.0 mg/kg/injection, schedule: Q04DX003 (ip), vehicle: Klucel (hydroxypropylcellulose) (HPC)
[7] = dose: 100.0 mg/kg/injection, schedule: Q04DX003 (ip), vehicle: saline
[8] = dose: 200.0 mg/kg/injection, schedule: Q04DX003 (ip), vehicle: saline
[9] = dose: 100.0 mg/kg/injection, schedule: Q04DX002 (ip), vehicle: saline with Tween-80
[10] = dose: 200.0 mg/kg/injection, schedule: Q04DX002 (ip), vehicle: saline with Tween-80
[11] = dose: 400.0 mg/kg/injection, schedule: Q04DX002 (ip), vehicle: saline with Tween-80
[12] = dose: 100.0 mg/kg/injection, schedule: Q01DX001 (ip), vehicle: saline
[13] = dose: 200.0 mg/kg/injection, schedule: Q01DX001 (ip), vehicle: saline
[14] = dose: 100.0 mg/kg/injection, schedule: Q04DX002 (ip), vehicle: Klucel (hydroxypropylcellulose) (HPC)
[15] = dose: 200.0 mg/kg/injection, schedule: Q04DX002 (ip), vehicle: Klucel (hydroxypropylcellulose) (HPC)
[16] = dose: 400.0 mg/kg/injection, schedule: Q04DX002 (ip), vehicle: Klucel (hydroxypropylcellulose) (HPC)
[17] = dose: 400.0 mg/kg/injection, schedule: Q04DX003 (ip), vehicle: Klucel (hydroxypropylcellulose) (HPC)
[18] = dose: 400.0 mg/kg/injection, schedule: Q01DX009 (ip), vehicle: Klucel (hydroxypropylcellulose) (HPC)
[19] = dose: 12.5 mg/kg/injection, schedule: Q01DX009 (ip), vehicle: Klucel (hydroxypropylcellulose) (HPC)

Measured: T/C

COc1cc(/C=C(/C)[N+](=O)[O-])ccc1O
inactive: dose: 6.0 mg/kg/injection, schedule: Q01DX009 (ip), vehicle: carboxymethylcellulose (CMC) 112 % of control | dose: 12.0 mg/kg/injection, schedule: Q01DX009 (ip), vehicle: carboxymethylcellulose (CMC) 92 % of control | [1] 112 % of control | dose: 25.0 mg/kg/injection, schedule: Q01DX009 (ip), vehicle: carboxymethylcellulose (CMC) 105 % of control | [2] 100 % of control | dose: 50.0 mg/kg/injection, schedule: Q01DX009 (ip), vehicle: carboxymethylcellulose (CMC) 100 % of control and 103 % of control | dose: 50.0 mg/kg/injection, schedule: Q04DX003 (ip), vehicle: Klucel (hydroxypropylcellulose) (HPC) 97 % of control | [3] 109 % of control | [4] 105 % of control | [5] 103 % of control | [6] 103 % of control

N=C(N)SCc1ccc(Cl)c(Cl)c1
inactive: dose: 50.0 mg/kg/injection, schedule: Q01DX003 (ip), vehicle: Klucel (hydroxypropylcellulose) (HPC) 106 % of control | dose: 100.0 mg/kg/injection, schedule: Q01DX003 (ip), vehicle: Klucel (hydroxypropylcellulose) (HPC) 101 % of control | [7] 102 % of control | [8] 89 % of control

Cc1c(O)c2ccccc2[nH]c1=O
inactive: [9] 97 % of control | [10] 103 % of control | [11] 106 % of control

COc1ccc(C[n+]2cccc(NC(=O)COc3ccc(Cl)c(Cl)c3)c2)cc1
inactive: [4] 97 % of control

NC1(C(=O)O)CSSC1
inactive: dose: 12.5 mg/kg/injection, schedule: Q01DX005 (ip), vehicle: saline 97 % of control | dose: 25.0 mg/kg/injection, schedule: Q01DX005 (ip), vehicle: saline 99 % of control | dose: 50.0 mg/kg/injection, schedule: Q01DX005 (ip), vehicle: saline 103 % of control and 114 % of control | [12] 106 % of control | dose: 100.0 mg/kg/injection, schedule: Q01DX005 (ip), vehicle: saline 110 % of control | [13] 101 % of control

CC1C(=O)CCC2(C)CCC(C(=O)/C=C/c3ccco3)CC12 (stereo not given)
inactive: dose: 100.0 mg/kg/injection, schedule: Q01DX001 (ip), vehicle: Klucel (hydroxypropylcellulose) (HPC) 100 % of control | dose: 200.0 mg/kg/injection, schedule: Q01DX001 (ip), vehicle: Klucel (hydroxypropylcellulose) (HPC) 102 % of control | dose: 400.0 mg/kg/injection, schedule: Q01DX001 (ip), vehicle: Klucel (hydroxypropylcellulose) (HPC) 89 % of control

CC(C)CC(C)NCC(C)OC(=O)c1ccc(N)cc1 (stereo not given)
inactive: dose: 75.0 mg/kg/injection, schedule: Q01DX001 (ip), vehicle: other 110 % of control

CCS(=O)(=O)N1CCCCC1C (stereo not given)
inactive: [9] 93 % of control | [10] 99 % of control | [11] 96 % of control

Cc1cccc(C)c1OC(=O)Nc1cccc2ccccc12
inactive: dose: 12.5 mg/kg/injection, schedule: Q04DX002 (ip), vehicle: Klucel (hydroxypropylcellulose) (HPC) 105 % of control | dose: 25.0 mg/kg/injection, schedule: Q04DX002 (ip), vehicle: Klucel (hydroxypropylcellulose) (HPC) 118 % of control | dose: 50.0 mg/kg/injection, schedule: Q04DX002 (ip), vehicle: Klucel (hydroxypropylcellulose) (HPC) 112 % of control | [14] 95 % of control | [15] 97 % of control | [16] 89 % of control

Fc1ccc(CSC(=S)Nc2ccc(Cl)c(Cl)c2)cc1
inactive: dose: 75.0 mg/kg/injection, schedule: Q04DX003 (ip), vehicle: saline with Tween-80 102 % of control | dose: 150.0 mg/kg/injection, schedule: Q04DX003 (ip), vehicle: saline with Tween-80 106 % of control

C=COCCCCOC=C
inactive: [4] 113 % of control | [6] 105 % of control | [17] 105 % of control

CC(C(=O)O)N1C(=O)c2ccccc2C1=O (stereo not given)
inactive: [3] 93 % of control | [4] 92 % of control | [5] 95 % of control | [6] 97 % of control | [18] 90 % of control | [17] 94 % of control

N=C1SCc2ccc3ccccc3c21
inactive: dose: 100.0 mg/kg/injection, schedule: Q01DX001 (ip), vehicle: other 92 % of control | dose: 200.0 mg/kg/injection, schedule: Q01DX001 (ip), vehicle: other 108 % of control | dose: 400.0 mg/kg/injection, schedule: Q01DX001 (ip), vehicle: other 97 % of control

Cc1ccc(SCCN=C(N)CSS(=O)(=O)O)cc1
inactive: [19] 94 % of control | [1] 107 % of control | [14] 92 % of control | [15] 101 % of control | [16] 92 % of control

Cc1cc(C)c(-c2c(C)cc(C)c(N)c2C)c(C)c1N
inactive: [19] 90 % of control | [1] 93 % of control | [2] 103 % of control | [4] 109 % of control | [6] 95 % of control | [17] 97 % of control

CC1CCCC1C(=Nc1ccc(Cl)c(Cl)c1)N1CCCCC1 (stereo not given)
inactive: [12] 105 % of control | [13] 100 % of control | dose: 400.0 mg/kg/injection, schedule: Q01DX001 (ip), vehicle: saline 102 % of control

Cc1ccc([N+](=O)[O-])cc1NC(=O)N(CCO)C1CCCCC1
inactive: [14] 101 % of control | [15] 100 % of control | [16] 104 % of control

COc1ccccc1NC(=O)Nc1ccc(Nc2ccccc2)cc1
inactive: [3] 101 % of control | [4] 103 % of control | [5] 104 % of control | [6] 91 % of control | [18] 104 % of control | [17] 97 % of control

Cc1cc(O)c2c(c1)C(=O)C13C(=C2O)C(=O)C2C(O)C1C1C(O)C3C(=O)C3=C(O)c4c(O)cc(C)cc4C(=O)C321 (stereo not given)
inactive: dose: 20.0 mg/kg/injection, schedule: Q04DX003 (ip), vehicle: saline with Tween-80 107 % of control | dose: 40.0 mg/kg/injection, schedule: Q04DX003 (ip), vehicle: saline with Tween-80 100 % of control | dose: 80.0 mg/kg/injection, schedule: Q04DX003 (ip), vehicle: saline with Tween-80 102 % of control

CC1CCC(C(C)C)C2(C1)NC(=O)N(CC(=O)O)C2=O (stereo not given)
inactive: dose: 100.0 mg/kg/injection, schedule: Q04DX003 (ip), vehicle: saline with Tween-80 93 % of control | dose: 200.0 mg/kg/injection, schedule: Q04DX003 (ip), vehicle: saline with Tween-80 100 % of control | dose: 400.0 mg/kg/injection, schedule: Q04DX003 (ip), vehicle: saline with Tween-80 104 % of control

NC(=O)N1Cc2ccccc2CCc2ccccc2C1
inactive: [4] 98 % of control | [17] 91 % of control

CCCCN1C(c2ccccc2)=CN(Cc2ccccc2)C=C1c1ccccc1
inactive: [14] 106 % of control | [15] 110 % of control | [16] 103 % of control

NC(=O)NC(Cc1ccccc1)(C(=O)O)c1ccccc1 (stereo not given)
inactive: [4] 103 % of control | [6] 98 % of control | [17] 103 % of control

Cc1ccc(C)c(NCC(=O)NN)c1
inactive: [14] 103 % of control | [15] 100 % of control | [16] 100 % of control

CCCn1nnc2ccccc2c1=Nc1ccccc1
inactive: [7] 99 % of control | [8] 94 % of control | dose: 400.0 mg/kg/injection, schedule: Q04DX003 (ip), vehicle: saline 103 % of control
